In EP0326418A1, “GRF analogs” (THE UPJOHN COMPANY, priority 1988, dated 1989):
Where a SMILES comes first, the peptide text is derived from it. [ ]: non-standard residue; d: D form. Cya = N[C@@H](CS(=O)(=O)O)C(=O)O

Key:
[1] = tested on: meal-fed Holstein steers; experiment: serum growth hormone (GH) response after intravenous injection in steers (Procedure B); type: in vivo; details: in comparison to the standard bGRF(1-44)NH₂ (Area 100%), procedure B, second study
From the text: The synthetic peptides prepared in Examples 1, 2 and 3 (Compounds 1, 2 and 3 respectively), bGRF(1-44)NH2 and […] bGRF(1-32)NH2 were also given to meal-fed Holstein steers by intravenous injection (Procedure B) and the serum growth hormone (GH) response evaluated. […] In comparison to bGRF(1-44)NH2 (100%), the area under the GH response curve was 122% for […] bGRF(1-32)NH2, 100% for Compound #1, 106% for Compound #2, and 111% for Compound #3. Holstein steers (265 +/- 5kg) were housed in individual stalls 18-20°C) and exposed to 16h light:8h darkness (lights on at 0400h). Steers are meal-fed once daily at 1000h and trained to consume their total daily feed intake in 2 h. The diet consisted of rolled corn plus a mineral/vitamin premix and alfalfa hay cubes fed at 160% maintenance energy requirements on a bodyweight basis. Steers gained approximately 0.75 kg/h/d. In a 5 x […] Latin Square design 10 steers were assigned randomly to receive the following treatments. (a) bGRF(1-44)NH2, (b) […] bGRF(1-32)NH2, (c) Compound #3, (d) Compound #1, and (e) Compound #2. The GRFs were dissolves in saline (10μg/ml) and administered at 3nM/100 kg bodyweight as single iv injection at 0800 h, 2 h between feeding. A cannula was inserted into a jugular vein at least one day before treatment. Blood (6 ml) was collected at 20-min interval from 40 min before until 120 min after injection with additional samples collected at 5, 10 and 15 min after injection. Serum obtained from the samples was assayed from GH concentration. The number of steers responding to injection fo the various GRFs tested (P=0.42) ranged from 9 of 10 to 10 of 10 depending on the treatment. Using procedure B, compounds were tested for growth hormone release in steers. In comparison to the standard bGRF(1-44)NH2 (Area 100%), the test compounds gave the following relative growth hormone areas: Compound 4, 233%; compound 5, 140%; compound 6, 160%; compound 7, 126%; compound 8, 307%; compound 9, 260%; and compound 11, 173%.

[2] = proteolytic stability in bovine plasma (HPLC, modified Frohman method); details: bovine plasma
[3] = tested on: bovine anterior pituitary cell culture; type: cell-based

remaining at 1 h [2]: 86%
SMILES: CC[C@H](C)[C@H](NC(=O)[C@H](C)NC(=O)[C@H](CS(=O)(=O)O)NC(=O)[C@@H](C)NC(=O)[C@@H](N)Cc1c[nH]cn1)C(=O)N[C@@H](Cc1ccccc1)C(=O)N[C@H](C(=O)N[C@@H](CC(N)=O)C(=O)N[C@@H](CO)C(=O)N[C@@H](Cc1ccc(O)cc1)C(=O)N[C@@H](CCCNC(=N)N)C(=O)N[C@@H](CCCCN)C(=O)N[C@H](C(=O)N[C@@H](CC(C)C)C(=O)N[C@@H](C)C(=O)N[C@@H](CCC(N)=O)C(=O)N[C@@H](CC(C)C)C(=O)N[C@@H](CO)C(=O)N[C@@H](C)C(=O)N[C@@H](CCCNC(=N)N)C(=O)N[C@@H](CCCCN)C(=O)N[C@@H](CC(C)C)C(=O)N[C@@H](CC(C)C)C(=O)N[C@@H](CCC(N)=O)C(=O)N[C@@H](CC(=O)O)C(=O)N[C@H](C(=O)N[C@@H](CC(C)C)C(=O)N[C@@H](CC(N)=O)C(=O)N[C@@H](CCCNC(=N)N)C(=O)N[C@@H](CCC(N)=O)C(=O)N[C@@H](CCC(N)=O)C(=O)NCC(N)=O)[C@@H](C)CC)C(C)C)[C@@H](C)O [Compound 11, His¹, D-Ala², Cya³, Ala¹⁵, Leu²⁷-bGRF(1-32)NH₂] (H-H[dA][Cya]AIFTNSYRKVLAQLSARKLLQDILNRQQG-NH2)
relative growth hormone areas [1]: 173% | the potency of bGRF(1-44)NH₂ [3]: 0.28
